According to US10039759B2, “Quinolines as FGFR kinase modulators” (priority 2011, dated 2018):

Tests used:
[1] = system: Ba/F3-FGFR1-transfected cells; assay: Ba/F3-FGFR1 (minus IL3 or plus IL3) cellular proliferation assay, Alamar Blue; type: cell-based; conditions: plus IL3 (10 ng/ml murine IL3, counterscreen), 24 hours
Summary of the method: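 Ba/F3-FGFR1 cells (20000/well) were treated with compound (10 μM–0.1 nM) for 24 h at 37 °C. Alamar Blue was then added for 4 h, with fluorescence read at ex 540/em 590 nm to give IC50/pIC50. A counterscreen was run with 10 ng/ml murine IL3.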

[2] = system: Ba/F3-Flt3-transfected cells; assay: Ba/F3-Flt3 (minus IL3 or plus IL3) cellular proliferation assay, Alamar Blue; type: cell-based; conditions: plus IL3 (10 ng/ml murine IL3, counterscreen), 24 hours
Description: Ba/F3-Flt3 (Minus IL3 or Plus IL3) (Cellular Proliferation Assay)
In a 384 well plate, 100 nl of compound dilution in DMSO was sprayed before adding 50 μl cell culture medium (phenol red free RPMI-1640, 10% FBS, 2 mM L-Glutamine and 50 μg/ml Gentamycin) containing 20000 cells per well of Ba/F3-Flt3-transfected cells. Cells were put in an incubator at 37° C. and 5% CO2. After 24 hours, 10 μl of Alamar Blue solution (0.5 mM K3Fe(CN)6, 0.5 mM K4Fe(CN)6, 0.15 mM Resazurin and 100 mM Phosphate Buffer) was added to the wells, incubated for 4 hours at 37° C. and 5% CO2 before RFU's (Relative Fluorescence Units) (ex. 540 nm., em. 590 nm.) were measured in a fluorescence plate reader.
In this assay, the inhibitory effect of different compound concentrations (range 10 μM to 0.1 nM) was determined and used to calculate an IC50 (M) and pIC50 (−log IC50) value. As a counterscreen the same experiment was performed in the presence of 10 ng/ml murine IL3.

With `COc1cc(OC)cc(N(CC(O)C(F)(F)F)c2ccc3ncc(-c4cnn(C)c4)cc3c2)c1` (single isomer, unassigned) [Compound 25] the “BAF3-FGFR1 (PLUS IL3 pIC50)” value [1] was under 5 and the “BAF3-FLT3 (PLUS IL3 Alamar Blue pIC50)” value [2] was under 5.
